According to patent US20220030868A1, “FUNGICIDAL HALOMETHYL KETONES AND HYDRATES” (FMC CORPORATION, priority 2018, published 2022):

Tests used:
[1] = test system: Puccinia recondita f. sp. tritici; assay: Test B: test suspension sprayed on wheat seedlings one day before inoculation with Puccinia recondita f. sp. tritici spores (wheat leaf rust), disease rating; assay type: in vivo; conditions: 100 = 100% disease control, 0 = no control
Source text: General protocol for preparing test suspensions for Tests A-C: the test compounds were first dissolved in acetone in an amount equal to 3% of the final volume and then suspended at the desired concentration (in ppm) in acetone and purified water (50/50 mix by volume) containing 250 ppm of the surfactant PEG400 (polyhydric alcohol esters). The resulting test suspensions were then used in Tests A-C. The test solution was sprayed to the point of run-off on wheat seedlings. The following day the seedlings were inoculated with a spore suspension of Puccinia recondita f. sp. tritici (the causal agent of wheat leaf rust) and incubated in a saturated atmosphere at 20° C. for 24 h, and then moved to a growth chamber at 20° C. for 6 days, after which time disease ratings were made. Results for Tests A-C are given in Table A. In the Table, a rating of 100 indicates 100% disease control and a rating of 0 indicates no disease control (relative to the controls). An asterisk “*” or a double asterisk “**” next to the rating value indicates a 50 ppm or 10 ppm test suspension was used, respectively. A dash (-) indicates the compound was not tested.

Phakopsora pachyrhizi = assay: Test A: test suspension sprayed on soybean seedlings one day before inoculation with Phakopsora pachyrhizi spores (Asian soybean rust), visual disease rating; assay type: in vivo; conditions: 100 = 100% disease control, 0 = no control; for pest or weed control at 50 ppm: Phakopsora pachyrhizi
Source text: General protocol for preparing test suspensions for Tests A-C: the test compounds were first dissolved in acetone in an amount equal to 3% of the final volume and then suspended at the desired concentration (in ppm) in acetone and purified water (50/50 mix by volume) containing 250 ppm of the surfactant PEG400 (polyhydric alcohol esters). The resulting test suspensions were then used in Tests A-C.
The test solution was sprayed to the point of run-off on soybean seedlings. The following day the seedlings were inoculated with a spore suspension of Phakopsora pachyrhizi (the causal agent of Asian soybean rust) and incubated in a saturated atmosphere at 22° C. for 24 h, and then moved to a growth chamber at 22° C. for 8 days, after which time visual disease ratings were made.
Results for Tests A-C are given in Table A. In the Table, a rating of 100 indicates 100% disease control and a rating of 0 indicates no disease control (relative to the controls). An asterisk “*” or a double asterisk “**” next to the rating value indicates a 50 ppm or 10 ppm test suspension was used, respectively. A dash (-) indicates the compound was not tested.

SMILES	Test B rating (disease control) ([1]; 10 ppm test suspension)	Test A rating (disease control) (Phakopsora pachyrhizi; 10 ppm test suspension)	also measured
CCOC(=O)c1cnn(Cc2ccc(OC(F)(F)C3(C(F)(F)F)OCCO3)cc2)c1 [compound 319]			Test B rating (disease control) ([1]; 50 ppm test suspension): 41%; Test A rating (disease control) (Phakopsora pachyrhizi; 50 ppm test suspension): 100%
CCOC(=O)c1cnn(Cc2ccc(OCC3(C(F)(F)F)OCCCO3)cc2)c1 [Compound 52]	0%	99%	
OCc1ccc(OCC2(C(F)(F)F)OCCO2)cc1 [compound 178]	0%	0%	
COCCNC(=O)c1csc(Cc2ccc(OCC(O)(O)C(F)(F)F)cc2)n1 [Compound 223]	0%	75%	
CCO/C(=C\Oc1ccc(S(=O)(=O)N(C)C)cc1)C(F)(F)F [compound 61]	0%	0%	
CON(Cc1ccc(OCC2(C(F)(F)F)OCCO2)cc1)C(=O)OC(C)(C)C [compound 238]	0%	73%	
CCO/C(=C\Oc1ccc(Cn2c(=O)oc3ccccc32)cc1)C(F)(F)F [compound 226]	0%	0%	
CCO/C(=C\Oc1cccc(Cn2cc(C(=O)OCCCCl)cn2)c1)C(F)(F)F [compound 338]	0%	100%	
CCO/C(=C\Oc1cccc(Cn2cc(C(=O)OCC3CC3)cn2)c1)C(F)(F)F [compound 341]	0%	100%	
CC#CCOC(=O)c1cnn(Cc2cccc(O/C=C(\OCC)C(F)(F)F)c2)c1 [compound 300]	0%	100%	
CCOC(=O)c1cnn(Cc2ccc(SCC3(C(F)(F)F)OCCO3)cc2)c1 [compound 115]			Test B rating (disease control) ([1]; 250 ppm test suspension): 0%; Test A rating (disease control) (Phakopsora pachyrhizi; 250 ppm test suspension): 0%
CCO/C(=C\Oc1ccc(Cn2cc(C(=O)OC(C)(C)C)cn2)cc1)C(F)(F)F [compound 89]	0%	0%	
N#Cc1cnn(Cc2ccc(OCC3(C(F)(F)F)OCCO3)cc2)c1 [compound 209]	0%	89%	
CCO/C(=C\Oc1ccc(Cn2cc(C(=O)NCC3CC3)cn2)cc1)C(F)(F)F [compound 117]	0%	23%	
CCO/C(=C\Oc1ccc(CN2C(=O)c3ccccc3C2=O)cc1)C(F)(F)F [compound 184]	0%	0%	
O=C(NCC(F)(F)F)c1cnc(Cc2ccc(OCC3(C(F)(F)F)OCCO3)cc2)o1 [Compound 257]	0%	54%	
CCO/C(=C\Oc1ccc(Cc2ncc(C(=O)NCC3CC3)o2)cc1)C(F)(F)F [compound 258]	0%	96%	
CCOC(=O)c1cnn(Cc2ccc(C/C=C(\OCC)C(F)(F)F)cc2)c1 [compound 140]	23%	98%	
CCO/C(=C\Oc1ccc(CNS(=O)(=O)CC)cc1)C(F)(F)F [compound 149]	0%	0%	
CCO/C(=C\Oc1cccc(Cn2cc(C(=O)O)cn2)c1)C(F)(F)F [compound 323]			Test B rating (disease control) ([1]; 50 ppm test suspension): 0%; Test A rating (disease control) (Phakopsora pachyrhizi; 50 ppm test suspension): 100%
O=C(NCC(F)(F)F)c1cnc(Cc2ccc(OCC(O)(O)C(F)(F)F)cc2)o1 [Compound 274]	0%	48%	
O=Cc1ccc(OCC(O)(O)C(F)(F)F)cc1 [Compound 177]			Test B rating (disease control) ([1]; 50 ppm test suspension): 89%; Test A rating (disease control) (Phakopsora pachyrhizi; 50 ppm test suspension): 100%
CCC#CCOC(=O)c1ccn(Cc2ccc(O/C=C(\OCC)C(F)(F)F)cc2)n1 [compound 326]	0%	100%	
CCS(=O)(=O)Cc1ccc(OCC2(C(F)(F)F)OCCO2)cc1 [compound 23]	19%	0%	
CCOC(=O)c1cnn(CCCc2ccc(OCC3(C(F)(F)F)OCCO3)cc2)c1 [compound 296]	0%	0%	
C=CCOC(=O)c1ccc(O/C=C(\OCC)C(F)(F)F)cc1 [compound 74]	0%	0%	

SMILES	Test B rating (disease control) ([1]; 10 ppm test suspension)	Test A rating (disease control) (Phakopsora pachyrhizi; 10 ppm test suspension)	also measured
CON(Cc1ccc(OCC2(C(F)(F)F)OCCO2)cc1)C(=O)C(C)C [compound 235]	0%	97%	
CCOC(=O)c1cnn(CCc2ccc(OCC(O)(O)C(F)(F)F)cc2)c1 [Compound 131]			Test B rating (disease control) ([1]; 50 ppm test suspension): 86%; Test A rating (disease control) (Phakopsora pachyrhizi; 50 ppm test suspension): 99%
CCO/C(=C\Oc1ccc(CSC#N)cc1)C(F)(F)F [compound 155]	0%	0%	
CCO/C(=C\Oc1cccc(Cn2cc(C(=O)OCC3CCC3)cn2)c1)C(F)(F)F [compound 342]	0%	100%	
CCOC(=O)c1cc(OC)n(Cc2ccc(O/C=C(\OCC)C(F)(F)F)cc2)n1 [compound 90]	0%	100%	
O=C(OCc1ccccc1)c1cnn(Cc2ccc(OCC(O)(O)C(F)(F)F)cc2)c1 [Compound 47]			Test B rating (disease control) ([1]; 50 ppm test suspension): 95%; Test A rating (disease control) (Phakopsora pachyrhizi; 50 ppm test suspension): 100%
CCO/C(=C\Oc1ccc(CNC(=O)C(C)C)cc1)C(F)(F)F [compound 210]	0%	0%	
O=C(OCC1CCCCC1)c1cnn(Cc2ccc(OCC3(C(F)(F)F)OCCO3)cc2)c1 [compound 272]	0%	100%	
O=C(NCC(F)(F)F)c1csc(Cc2ccc(OCC3(C(F)(F)F)OCCO3)cc2)n1 [Compound 70]			Test B rating (disease control) ([1]; 250 ppm test suspension): 100%; Test A rating (disease control) (Phakopsora pachyrhizi; 250 ppm test suspension): 100%
CCOC(=O)c1cnn(Cc2ccc(OCC3(C(F)(F)F)OCCO3)s2)c1 [compound 273]			pest or weed control at 50 ppm ([1]; 50 ppm test suspension): 0%; pest or weed control at 50 ppm (Phakopsora pachyrhizi; 50 ppm test suspension): 100%
OC(O)(CCc1ccc(Cn2ccc3ccccc32)cc1)C(F)(F)F [Compound 30]	0%	0%	
NCc1ccc(OCC2(C(F)(F)F)OCCO2)cc1 [compound 174]	0%	0%	
CCS(=O)(=O)Cc1ccc(OCC(O)(O)C(F)(F)F)cc1 [Compound 29]	28%	84%	
N#Cc1cccc(OCC2(C(F)(F)F)OCCO2)c1 [compound 147]			pest or weed control at 50 ppm ([1]; 50 ppm test suspension): 0%; pest or weed control at 50 ppm (Phakopsora pachyrhizi; 50 ppm test suspension): 77%
CCOC(=O)c1cnn(Cc2ccc(OCC3(C(F)(F)F)OC(=O)CS3)cc2)c1 (stereo not drawn) [Compound 20]	86%	98%	
CCO/C(=C\Oc1cccc(Cn2cc(C(=O)OCC(C)=O)cn2)c1)C(F)(F)F [compound 337]	0%	100%	
CCO/C(=C\Oc1ccc(CN2CCC(C)(C)C2=O)cc1)C(F)(F)F [compound 225]	0%	0%	
CCCCOC(=O)c1cnn(Cc2cccc(O/C=C(\OCC)C(F)(F)F)c2)c1 [compound 339]	0%	100%	
CCO/C(=C\Oc1ccc(COC(N)=O)cc1)C(F)(F)F [compound 193]	86%	0%	
CCOC(=O)c1cnn(C(C)c2ccc(OCC3(C(F)(F)F)OCCO3)cc2)c1 (stereo not drawn) [compound 26]	0%	99%	
CCO/C(=C\Oc1ccc(Cc2nc(C(=O)NCC(F)(F)F)cs2)cc1)C(F)(F)F [compound 129]	0%	100%	
O=C(OCC1OCCO1)c1cnn(Cc2ccc(OCC3(C(F)(F)F)OCCO3)cc2)c1 [compound 204]	0%	100%	
CCO/C(=C\Oc1ccc(Cn2ncnc2SC)cc1)C(F)(F)F [Compound 260]	0%	0%	
N#CCOC(=O)c1cnn(Cc2ccc(OCC3(C(F)(F)F)OCCO3)cc2)c1 [compound 172]	0%	100%	
CCO/C(=C\Oc1ccc(Cc2ccnc(SC)n2)cc1)C(F)(F)F [compound 308]			Test B rating (disease control) ([1]; 50 ppm test suspension): 0%; Test A rating (disease control) (Phakopsora pachyrhizi; 50 ppm test suspension): 25%
